Measurements published in patent US8993527B2, “Methods, compositions, and formulations for preventing or reducing adverse effects in a patient” (Pericor Therapeutics, Inc., priority 2005, dated 2015).
pIC50: −log10 of the molar value. Where two headings read alike, the source gives them in different places.

Assays:
[1] = test system: isoproterenol (isuprel)-induced arrhythmias; assay: Suppression of isoproterenol (isuprel)-induced arrhythmias; type: in vivo, rat; details: 1000 mg/kg intraperitoneally
Method: Five minutes later both animals were anesthetized with 330 mg/kg of chloral hydrate injected intraperitoneally. Then a single EKG lead was attached to each rat for simultaneous recording of the paired rats' electrocardiograms. To produce arrhythmia, each rat was injected subcutaneously with isuprel […].
Beginning 30 minutes after isuprel introduction, the electrocardiograph recording paper speed was run (5 cm/sec) for 10 minutes to count the arrhythmic beats of both animals.

[2] = molecular target: T1, calf intestinal musosa adenosine deaminase (Bos taurus, UniProt P56658); assay: Adenosine deaminase activity; type: biochemical; details: 80 μM adenosine, 10 minutes at 37° C.
T1 construct: 0.002 units of calf intestinal musosa adenosine deaminase; from tissue; host or cells: calf intestinal mucosa
Method: Different concentrations of the test compounds were incubated in the assay mixture for 10 minutes at 37° C. The reaction was monitored continuously for oxidation of NADH from the change in absorbance at 340 nm.

ischemic rat hearts = assay: Rat heart ischemia model: tissue adenosine levels; type: in vivo; details: intraperitoneal; hearts excised after 60 minutes, incubated 60 minutes at 37° C.
Method: Male rats were injected intraperitonealy with either the AICA riboside analog, AICA riboside or saline, as a control. After 60 minutes, the hearts were excised and incubated at 37° C. for a further 60 minutes. Tissue extracts were prepared and analyzed for adenosine by high performance liquid chromatography (HPLC).

[3] = test system: adenylosuccinase deficiency (autism); assay: Therapeutic trial of oral AICA riboside in patients with adenylosuccinase deficiency (autism); type: in vivo, human
Excerpt: Following authorization, therapeutic trials with AICA riboside were started in two patients with adenylosuccinase deficiency (autism). […] On Day 55, both patients were briefly readmitted for clinical, biochemical and psychiatric evaluation. […] Treatment was maintained until Day 71, and arrested at that date. […] A correct assessment of the renal loss of the nucleoside could not be obtained. […] The following parameters were found normal before and during the trial treatment with AICA riboside: red blood cell count, white blood cell count, platelet and reticulocyte counts; leukocyte differentiations; hematocrit, ionogram, Ca, phosphate, urea, creatinine, uric acid, cholesterol, lipids, SGOT, SGPT, CPK, glucose, lactate and ammonia.

[4] = test system: HPRT+ neuroblastoma cells; assay: Adenosine excretion by stimulated HPRT+ neuroblastoma cells; type: cell-based; details: 50 μM AICA riboside, calcium ionophore A23187, 1.0 μM deoxycoformycin
Method: To induce ATP catabolism, the growth medium was replaced by medium containing micromolar amounts of the calcium ionophore A23187 and 1.0 μM deoxycoformycin.

[5] = test system: patients undergoing CABG surgery; type: in vivo
Method: All patients from all clinical trials were included: a total of 4043 patients undergoing CABG surgery, evaluable for efficacy, and randomized to receive either placebo (n=2031) or acadesine (0.1 mg-kg^−1-min^−1; n=2012) by intravenous infusion for 7 continuous hours and via the cardioplegia solution.
Individual patient data were collected prospectively using standardized forms and methods and double-data entry. A general parametric approach and analysis-by-patient meta-analysis were used, including both fixed effects and random effects models. Inclusion and exclusion criteria, general methodology, and outcome assessment techniques were similar for all trials.
Meta-analysis included all patients undergoing CABG surgery in the United States, Canada, and Europe who had received acadesine at a dose of 0.1 mg-kg^1min^1. No patients satisfying these criteria were excluded. All 5 studies were randomized, placebo controlled, double blinded, and performed with approval from the 81 participating McSPI institutions and with patient informed consent. Inclusion and exclusion criteria, general methods, and outcome assessment techniques were similar for all trials; with several exceptions (Table 1). […] For all patients, blinded study drug (acadesine or placebo) was administered intravenously, starting approximately 15 minutes before induction of anesthesia and continuing for a total of 7 hours to include the intraoperative (prebypass and postbypass) and immunediate postoperative (into the intensive care unit) periods.
Prior to surgery, investigators ascertained cardiac history and recorded cardiac catheterization information. The use of agents potentially affecting endogenous adenosine concentration (which could complicate the analysis of efficacy) was restricted, including dipyridamole, theophylline, adenosine, and pentoxifylline. All chronic cardiovascular medications, including nitrates, β-blockers, and calcium channel blockers, were continued until the time of surgery. During surgery, but prior to bypass, the usual monitors wore applied, anesthetic techniques were standardized, and hemodynamic variables (blood pressure, heart rate) were to be maintained within specific boundaries for trials 1013, 1016, and 1023; for trials […], guidelines for anesthetic use and hemodynamic control were recommended. For all studies, prophylactic use of cardiovascular agents having potential anti-ischemic properties (nitrates, calcium channel Mockers) was specifically excluded to avoid confounding data interpretation. During cardiopulmonary bypass, neither the surgical technique nor bypass procedures (including cardioplegia administration) were controlled for the phase 3 trials, and bypass typically was conducted using a membrane oxygenator and arterial filter with hemodilution and moderate systemic hypothermia. Following bypass, the use of inotropic and vasodilating agents (excluding the prophylactic use of anti-ischemic medications) and treatment of clinically detected ischemia were not controlled; all medications administered were recorded.
For all studies, the primary outcome, MI, and other secondary outcomes were ascertained and validated by IREF Coordinating Center investigators who were blinded to patient identity and group assignment. Secondary outcomes included cardiac death, stroke, life-threatening dysrhythmia, and severe heart failure (Table 1). For MI, repeated electrocardiograms (ECGs) were coded centrally by core investigators using Minnesota Code criteria. Creatine kinase-MB (CK-M13) concentrations were sampled approximately 18 times during the first 4 postoperative days and, for phase 3 studies, were analyzed centrally using an immunoenzymetric assay (Hybritech Tandem-E CK-MB II, SmithKline Beecham, Van Nuys, Calif.). The presence of infarction at autopsy was based on pathologic data from the respective institution and confirmed centrally by the Endpoint Committee.

[6] = death following myocardial infarction, acadesine vs placebo (n = 98)
[7] = patients with myocardial infarction, Acadesine (n = 71)
[8] = patients with myocardial infarction, Acadesine (n = 71), number of patients

T1 sequence (P56658 whole entry): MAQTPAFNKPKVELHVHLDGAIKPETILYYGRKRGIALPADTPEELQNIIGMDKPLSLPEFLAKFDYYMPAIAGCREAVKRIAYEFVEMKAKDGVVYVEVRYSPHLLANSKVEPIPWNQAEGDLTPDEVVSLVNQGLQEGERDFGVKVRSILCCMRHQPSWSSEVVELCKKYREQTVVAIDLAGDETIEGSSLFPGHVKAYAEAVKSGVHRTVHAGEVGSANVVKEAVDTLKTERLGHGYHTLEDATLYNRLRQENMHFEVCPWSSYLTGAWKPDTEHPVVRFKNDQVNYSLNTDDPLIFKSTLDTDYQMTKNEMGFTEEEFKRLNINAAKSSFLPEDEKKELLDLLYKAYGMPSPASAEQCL

NC(=O)c1ncn([C@@H]2O[C@H](CO)[C@@H](O)[C@H]2O)c1N [1 (1-110), 5-amino-1-β-D-ribofuranosyl-imidazole-4-carboxamide]
ventricular fibrillation [1]: complete suppression | pIC50 [2]: < 2.30 | Tissue Adenosine Levels (% Increase vs. Saline) (ischemic rat hearts): 30% | side effects ([3]; oral 5 mg/kg/day up to 2×10 mg/kg/day): No clinical or biochemical side effects were observed | AICA riboside in plasma and CSF ([3]; oral, all dosages used): could not be detected | autistic features after two months of continuous administration ([3]; younger patient, older patient without modification): clear-cut improvement | adenosine secreted vs control cells [4]: at least twofold more adenosine than control cells | decrease of the incidence of perioperative myocardial infarction ([5]; 0.1 mg/kg/min for 7 hours vs placebo): 27% | cardiac death following MI through postoperative day 4 ([5]; acadesine group (1 death/71 MIs), placebo 13.3%): 1.4% | incidence of CVA ([5]; acadesine group (32/2012), placebo 2.3%): 1.6% | fewer patients with an adverse outcome ([5]; acadesine group vs placebo, combined outcomes): 41 | incidence of infarction ([5]; acadesine group, placebo 4.9%): 3.6% | cardiac deaths through postoperative day 4, number ([5]; acadesine group, placebo 26): 13 | Cardiac death at 28 days, patients ([5]; acadesine group, placebo 34): 20 | patients with myocardial infarction, number ([5]; acadesine group, placebo 98): 71 | autopsy-defined MI ([5]; acadesine patients, placebo 16/19): 2/11 | decrease of cardiac death following MI through postoperative day 4 ([5]; acadesine vs placebo): 89% | decrease of the incidence of cardiac death through postoperative day 4 ([5]; acadesine vs placebo): 50% | decrease of the incidence of combined outcome (MI, stroke, or cardiac death) ([5]; acadesine vs placebo): 26% | noncardiac death ([5]; acadesine vs placebo): no effect | reduction of the use of ventricular-assistance devices for severe postoperative heart failure ([5]; acadesine vs placebo): approximately one third | post-MI deaths ([5]; acadesine-treated patients, placebo 21/98): 4/71 | cardiac death in the first 4 days in patients without MI or not evaluable for MI ([5]; acadesine-treated, placebo 0.7%): 0.6% | Cardiac death by postoperative day 4, Reduction [5, 6]: 89% | Cardiac death by postoperative day 28, Reduction [5, 6]: 79% | Death by postoperative day 4, Reduction [5, 6]: 79% | Death by postoperative day 28, Reduction [5, 6]: 74% | cardiac failure, immediately life-threatening or prolonging hospitalization ([5]; human, in vivo, 7 h): 2.1% | incidence of serious adverse events ([5]; human, in vivo, 7 h): 9.1% | use of an intraaortic balloon pump ([5]; in vivo): 2.4% | Cardiac death by postoperative day 4, (%) [5, 7]: 1 (1) % | Cardiac death by postoperative day 28, (%) [5, 7]: 4% | Death by postoperative day 4, (%) [5, 7]: 3% | Death by postoperative day 28, (%) [5, 7]: 6% | Cardiac death by postoperative day 4, No. [5, 8]: 1 (1) | Cardiac death by postoperative day 28, No. [5, 8]: 3 | Death by postoperative day 4, No. [5, 8]: 2 | Death by postoperative day 28, No. [5, 8]: 4 | reduction in post-MI death ([5]; secondary analysis, acadesine vs placebo): 74% | effect size for MI ([5]; trial 1016 (n=414)): 73% | rate of stroke ([5]; trial 1016, placebo 4.2%): 0.5% | combined adverse cardiovascular outcome (MI, CVA or cardiac death) ([5]; trial 1016, placebo […]): 1.9% | infarction rate (Q wave and CK-MB or autopsy) ([5]; trial 1016, placebo […]): 1.5% | effect size for MI ([5]; trial 1017 (n=821)): 23% | effect size for MI ([5]; trial 1024 (n=2698)): 22%
